{
  "source": "patent US20040242461A1",
  "about": "“Modulators of telomere stability” (priority 2003, published 2004)",
  "key": {"[1]": {"target": "T1, HGK (Homo sapiens, UniProt O95819)", "T1 construct": "expressed in transfected cells", "T1 sequence (O95819 whole entry, the tested form may be a part, canonical isoform)": "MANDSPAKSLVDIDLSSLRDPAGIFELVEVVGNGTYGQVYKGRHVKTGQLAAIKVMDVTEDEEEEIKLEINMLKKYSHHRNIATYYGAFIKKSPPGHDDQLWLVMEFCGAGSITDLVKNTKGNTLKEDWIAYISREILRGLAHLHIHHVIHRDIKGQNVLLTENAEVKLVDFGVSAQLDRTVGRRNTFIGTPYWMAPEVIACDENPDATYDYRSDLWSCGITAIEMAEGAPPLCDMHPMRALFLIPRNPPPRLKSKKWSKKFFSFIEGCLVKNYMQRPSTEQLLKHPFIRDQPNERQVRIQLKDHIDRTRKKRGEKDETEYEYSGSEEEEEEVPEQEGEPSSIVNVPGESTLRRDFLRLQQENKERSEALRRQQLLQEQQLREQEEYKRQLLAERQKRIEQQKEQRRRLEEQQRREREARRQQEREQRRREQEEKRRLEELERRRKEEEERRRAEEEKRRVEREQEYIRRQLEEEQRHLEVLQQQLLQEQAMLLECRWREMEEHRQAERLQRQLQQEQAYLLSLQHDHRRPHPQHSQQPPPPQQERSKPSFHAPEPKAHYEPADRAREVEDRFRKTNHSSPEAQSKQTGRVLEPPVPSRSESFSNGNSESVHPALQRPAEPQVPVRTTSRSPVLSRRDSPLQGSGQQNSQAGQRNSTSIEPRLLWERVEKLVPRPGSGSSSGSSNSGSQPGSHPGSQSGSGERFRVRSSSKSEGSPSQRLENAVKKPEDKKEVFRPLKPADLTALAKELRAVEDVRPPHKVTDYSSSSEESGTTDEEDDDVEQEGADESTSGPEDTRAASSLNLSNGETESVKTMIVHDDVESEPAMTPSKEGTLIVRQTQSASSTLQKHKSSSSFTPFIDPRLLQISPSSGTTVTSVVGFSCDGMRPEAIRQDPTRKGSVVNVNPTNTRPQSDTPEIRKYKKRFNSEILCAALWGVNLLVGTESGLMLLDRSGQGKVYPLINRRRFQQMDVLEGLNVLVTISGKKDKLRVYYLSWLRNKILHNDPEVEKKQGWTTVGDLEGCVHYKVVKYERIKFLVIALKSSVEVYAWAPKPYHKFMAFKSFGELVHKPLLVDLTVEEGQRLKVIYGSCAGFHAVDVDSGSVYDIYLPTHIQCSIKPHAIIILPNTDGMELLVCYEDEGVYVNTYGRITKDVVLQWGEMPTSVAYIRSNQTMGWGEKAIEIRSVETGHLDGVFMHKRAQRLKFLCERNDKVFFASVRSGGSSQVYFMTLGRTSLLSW", "assay": "HGK immune complex kinase assay (recombinant FLAG-HGK in cardiomyocytes)", "type": "cell-based", "conditions": "for HGK activity after agonist: 50 μg/ml C2-ceramide, 200 μM H2O2", "source_text": "HGK was alternatively spliced, with the presence or absence of an SH3-like domain being one potentially important difference. […] Dominant-negative, FLAG-tagged JNK1 (JNK1 APF). Viruses were engineered using pAd-Easy-1 and pShuttleCMV. Adenoviruses encoding wild-type and dominant-negative TRF2 were constructed analogously (Oh et al., 2003), using cDNAs.\nFor HGK immune complex kinase assays, recombinant HGK was precipitated using M2 antibody and protein G-Sepharose, in the lysis buffer above. Precipitates were washed twice in lysis buffer, twice with 500 mM LiCl, 100 mM Tris-HCl, pH 7.6, 0.1% Triton X-100, and twice with kinase buffer (20 mM MOPS, pH 7.6, 2 mM EGTA, 10 mM MgCl2, 1 mM dithiothreitol, 0.1% Triton X-100, 1 mM Na3VO4), then were mixed with 10 μg of myelin basic protein (MBP) (Invitrogen, Carlsbad, Calif.), as substrate, 15 μM ATP, and 10 μCi [γ-^32P]ATP in 30 μl of kinase buffer for 30 min at 30° C. (Yao et al., 1999). Reaction mixtures were resolved by SDS-polyacrylamide gel electrophoresis, then were analysed by autoradiography and Western blotting as above."}, "[2]": {"test_system": "TRF2", "assay": "Western blot of TRF2 after antisense oligonucleotide transfection of mouse cardiomyocytes", "type": "cell-based", "conditions": "Oligofectamine transfection", "source_text": "(§1) The sequences used were: antisense TRF2 (asTRF2), 5′-[…]-3′ (SEQ ID NO:21); sense TRF2 (sTRF2), 5′-[…]-3′ (SEQ ID NO:22), antisense GFP (Sano, M. et al., 2002), 5′-[…]-3′ (SEQ ID NO:23). Oligonucleotides were transfected into 1-2 day-old C57BI/6 mouse cardiomyocytes, cultured as above, using Oligofectamine (Invitrogen).\n(§2) Proteins were resolved by electrophoresis in 10% SDS-polyacrylamide gels and transferred to membranes by electroblotting. Antibodies were: human and mouse TRF2 (Calbiochem), human and mouse TRF1 (Calbiochem), phospho-Chk2 (Thr68; Cell Signaling), sarcomeric a-actin and myc (Sigmna), FLAG epitope (M2, Kodak), GFP (Clontech), Chk2 (Santa Cruz), poly (ADP-ribose) polymerase (PARP, Oncogene). To detect exogenous TRF2 in virus infected cardiomyocytes, goat and rabbit antibodies to TRF2 were used (C-16, H-300, Santa Cruz); endogenous rat TRF2 was detected using rabbit antibody to TRF2 (Alpha Diagnostic International). After blocking with 5% non-fat milk plus 0.1% Tween-20, blots were incubated with primary antibodies (1:500), horseradish peroxidase-conjugated secondary antibodies (1:3000; Amersham Pharmacia Biotech), and enhanced chemiluminescence reagents (Amersham Pharmacia Biotech)."}, "[3]": {"test_system": "C57BI/6 mouse cardiomyocytes", "assay": "Apoptosis by flow cytometry after antisense transfection of mouse cardiomyocytes", "type": "cell-based", "conditions": "reduction of endogenous TRF2", "source_text": "as §1\nHypodiploid DNA was detected by two-color flow cytometry using propidium iodide for DNA content and FITC-conjugated MF20 (Oh, H. et al., 2001; Akli, S. et al., 1999) or FITC-conjugated antibody to sarcomeric myosin heavy chains to confirm myocyte identity, sampling>5000 myocytes for each histogram."}, "[4]": {"test_system": "poly (ADP-ribose) polymerase (PARP)", "assay": "PARP cleavage by Western blot after antisense transfection of mouse cardiomyocytes", "type": "cell-based", "conditions": "reduction of endogenous TRF2", "source_text": "as §1, §2"}, "[5]": {"test_system": "telomere length", "assay": "Telomere length by Southern blot after antisense transfection of mouse cardiomyocytes", "type": "cell-based", "conditions": "reduction of endogenous TRF2", "source_text": "as §1\n(§3) DNA was digested with Rsa I, resolved by electrophoresis in 0.5% agarose, transferred to Hybond-N^+ membranes (Amersham Pharmacia Biotech), and hybridized using a ^32P-labeled (TTAGGG)4 telomeric probe (Oh, H. et al., 2001; Counter, C. M., 1992). Mean telomere length was ascertained by Phosphor-Imager scanning (Molecular Dynamics)."}, "[6]": {"test_system": "Chk2", "assay": "Chk2 immune complex kinase assay after antisense transfection of mouse cardiomyocytes", "type": "cell-based", "conditions": "reduction of endogenous TRF2", "procedure": "as §1\nTo assay Chk2 activity, samples were lysed in 20 mM Tris-HCl (pH 8.0), 0.1% Triton X-100, 10 mM NaF, 1 mM NaVa3VO4, […], 1 mM PMSF, then incubated for 1 hr with antibody to Chk2 and protein A/G-Sepharose (Pharmacia). lmrunoprecipitates were washed and assayed in the presence of 30 μM CHKtide substrate peptide ([…] (SEQ ID NO:24), Upstate Biotechnology, Inc), 40 μM adenosine triphosphate, 15 μCi [γ-^32P]ATP, for 30 min at 30° C. Proteins were resolved by electrophoresis in SDS-polyacrylamide gels and visualized by autoradiography. Aliquots of Chk2 immunoprecipitates were also used for Western blotting, allowing activity and content to be compared in the same samples."}, "[7]": {"test_system": "TRF2", "assay": "Endogenous TRF2 expression in NIH 3T3 cells after antisense oligonucleotide", "type": "cell-based, mouse", "conditions": "NIH 3T3 cells (not shown)"}, "[8]": {"test_system": "TRF2", "assay": "Western blot of TRF2 protein levels in cultured cardiomyocytes", "type": "cell-based, rat", "source_text": "Ventricular myocytes from 2 day-old Sprague-Dawley rats were purified and cultured (Oh, H. et al., 2001; Akli, S. et al., 1999); by this age, ventricular myocytes become refractory to serum-induced Gl exit, after initial serum-starvation in vitro (Akli, S. et al., 1999). Plasmids for human TRF1, TRF2, and the corresponding dominant-negative truncations (TRF1DM, TRF2DBDM) were provided by Dr. Titia de Lange (Rockefeller University) (Karlseder, J. et al., 1999). Adenoviruses coexpressing enhanced green fluorescent protein (eGFP) were generated using pAdTrack-cytomegalovirus (CMV) and pShuttle-CMV (provided by Dr. Bert Vogelstein, Johns Hopkins Oncology Center) (Oh, H. et al., 2001; He, T. C., 1998). Myocytes were infected using a multiplicity of infection of 20. To visualize TRF1/2 after gene transfer, myocytes were fixed in 70% ethanol, then incubated sequentially with tetramethyl rhodamine isothiocyanate-conjugated MF-20 antibody to sarcomeric myosin heavy chains to confirm cell type (University of Iowa Hybridoma Bank), rabbit antibodies to TRF1 and TRF2 (#581420 and 581425; 1:500, Calbiochem) and fluorescein isothiocyanate (FITC)-conjugated goat antibody to rabbit IgG (1:1000, Sigma). Nuclei were stained with 4′,6-diamidino-2-phenylindole (DAPI). Images were captured using a Zeiss Axioplan 2 epifluorescence microscope.\nas §2, with “After blocking with 5% non-fat milk plus 0.1% Tween-20, blots were incubated with primary antibodies (1:500), horseradish peroxidase-conjugated secondary antibodies (1:3000; Amersham Pharmacia Biotech), and enhanced chemiluminescence reagents (Amersham Pharmacia Biotech).” left out"}, "[9]": {"test_system": "cardiomyocytes", "assay": "Apoptosis as hypodiploid DNA by two-color flow cytometry in cultured cardiomyocytes", "type": "cell-based, rat", "excerpt": "Myocytes were infected using a multiplicity of infection of 20. […] Nuclei were stained with 4′,6-diamidino-2-phenylindole (DAPI). Images were captured using a Zeiss Axioplan 2 epifluorescence microscope.\nVentricular myocytes from 1 to 2 day-old Sprague-Dawley rats were enzymatically dissociated, then subjected to Percoll gradient centrifugation and preplating to enrich for cardiomyocytes. After overnight culture in medium with 10% horse serum, cells were infected at a multiplicity of infection of 10, then cultured in serum-free medium for 24 to 48 hr (Oh et al., 2003). Where indicated, C2-ceramide (N-acetyl-D-sphingosine; ICN, Costa Mesa, Calif.), 5 mg/ml in dimethylsulfoxide (DMSO), was added at a final concentration of 20-50 μg/ml."}, "[10]": {"test_system": "poly (ADP-ribose) polymerase (PARP)", "assay": "PARP cleavage / total PARP by Western blot in cultured cardiomyocytes", "type": "cell-based, rat", "source_text": "as §2\nCells were lysed in 20 mM HEPES, pH 7.4, 2 mM EGTA, 50 mM glycerophosphate, 1% Triton X-100, 10% glycerol, 1 mM dithiothreitol, 2 μg/ml leupeptin, 5 μg/ml aprotinin, 1 mM phenylmethylsulfonyl fluoride, 1 mM Na3VO4. Lysates were resolved by SDS-polyacrylamide gel electrophoresis and transferred to optitran (Schleicher & Schuell, Keene, N.H.) membranes for Western blotting. […]"}, "[11]": {"test_system": "telomere length", "assay": "Telomere length by Southern blot with telomeric probe in cultured cardiomyocytes", "type": "cell-based, rat", "conditions": "gene transfer or treatment", "source_text": "as §3"}, "[12]": {"test_system": "αMHC-TRF2 mice and non-transgenic littermates", "assay": "Doxorubicin cardiomyopathy in αMHC-TRF2 mice and non-transgenic littermates", "conditions": "15 mg/kg intraperitoneally", "procedure": "Cardiac-specific transgenic mice were created by subcloning the TRF2 and dnTRF2 cDNAs behind the 5.5 kb mouse αMHC promoter (Subramaniam et al., 1991). The resultant plasmids were injected into the pronuclei of fertilized FVB/N oocytes, and tail DNA was used to screen for inheritance of the transgenes. Doppler and M-mode echocardiography were performed as described (Oh et al., 2003; and Minamino et al., 2002).\nTo test for cardiac protection, 10-12 week-old αLMHC-TRF2 mice (n=14) and non-transgenic littermates (n=14) were injected intraperitoneally with 15 mg/kg doxorubicin."}, "[13]": {"conditions": "cultured cardiomyocytes, gene transfer or treatment"}},
  "note": "Entries after “also recorded” stand apart in the source; their conditions may differ.",
  "data": [
    {"compound": "5′-CCTGGGCTGCCGGCTCGAGC-3′ (all phosphorothioate, sugars by position and methylation of C not given here) [antisense TRF2]", "values": [
      {"measurement": "induction of HGK activity", "setting": "[1]; antisense suppression of endogenous TRF2, antisense GFP as control", "result": "more than 50%"},
      {"measurement": "increase of HGK kinase activity", "setting": "[1]; mouse cardiomyocytes, antisense oligo transfection, HGK adenovirus", "result": 1.5, "unit": "fold"},
      {"measurement": "TRF2 protein level", "setting": "[2]", "result": "specifically reduced"},
      {"measurement": "apoptosis", "setting": "[3]", "result": "apoptosis"},
      {"measurement": "PARP cleavage", "setting": "[4]", "result": "PARP cleavage"},
      {"measurement": "telomere shortening", "setting": "[5]", "result": "telomere shortening"},
      {"measurement": "Chk2 activation", "setting": "[6]", "result": "Chk2 activation"},
      {"measurement": "endogenous TRF2 expression", "setting": "[7]", "result": "inhibited endogenous TRF2 expression effectively"}
    ]},
    {"compound": "OO", "note": "[H2O2]", "values": [
      {"measurement": "time to decrease of endogenous TRF2", "setting": "[8]; cardiomyocytes, 100 μM H2O2", "result": "≤ 2", "unit": "h"},
      {"measurement": "apoptosis (hypodiploid DNA)", "setting": "[9]; [13]", "result": "induced"},
      {"measurement": "PARP cleavage", "setting": "[10]; [13]", "result": "induced"},
      {"measurement": "telomere erosion / shortening", "setting": "[11]", "result": "induced"},
      {"measurement": "HGK activity after agonist", "setting": "[1]", "result": "activated"}
    ]},
    {"compound": "CCCCCCCCCCCCC/C=C/[C@@H](O)[C@H](CO)NC(C)=O", "note": "[ceramide, N-acetyl-D-sphingosine]", "values": [
      {"measurement": "TRF2 levels", "setting": "[8]; viral delivery or ceramide treatment", "result": "reduced TRF2 levels"},
      {"measurement": "increase in hypodiploid myocytes", "setting": "[9]; ceramide treatment", "result": 20, "unit": "fold"},
      {"measurement": "HGK activity after agonist", "setting": "[1]", "result": "activated further; also recorded: potent activator of HGK"}
    ]},
    {"compound": "COc1cccc2c1C(=O)c1c(O)c3c(c(O)c1C2=O)C[C@@](O)(C(=O)CO)C[C@@H]3O[C@H]1C[C@H](N)[C@H](O)[C@H](C)O1", "note": "[doxorubicin]", "values": [
      {"measurement": "TRF2 protein expression decreased", "setting": "[8]; cardiac myocytes, 1 μM doxorubicin, within 8 hr", "result": 50, "unit": "%"},
      {"measurement": "induction of cardiac myocyte apoptosis (hypodiploid myocytes)", "setting": "[9]; doxorubicin administered to myocytes", "result": "induced cardiac myocyte apoptosis"},
      {"measurement": "time until loss of PARP (caspase-3 activation) was comparable to the TRF2 loss", "setting": "[10]; cardiac myocytes, 1 μM doxorubicin", "result": 48, "unit": "h"},
      {"measurement": "survival as of day 16", "setting": "[12]; littermate controls", "result": 7, "unit": "%"},
      {"measurement": "mice that had died by 7 days after injection", "setting": "[12]; non-transgenic mice, n=14", "result": 63, "unit": "%"},
      {"measurement": "survival as of day 16", "setting": "[12]; αMHC-TRF2 mice", "result": 36, "unit": "%"},
      {"measurement": "deaths by 7 days after injection", "setting": "[12]; αMHC-TRF2 mice, n=14", "result": "no deaths"}
    ]}
  ]
}
